Two molecules from EP0974351A2, “Medicament for preventing and treating gastrointestinal damage” (JOUVEINAL, priority 1998, dated 2000) can be followed below.

The subject of experiment [1] is PGE2. The experiment can be described thus: PGE2 content of gastric mucosa biopsies (ELISA) in indomethacin-treated rats. The experiment is classed as in vivo, Male CD-Sprague-Dawley rats. The conditions noted are these: for effect on the inhibition of PGE2 caused by indomethacin: any dose tested (1-200 mg/kg orally). On the procedure:
(§1) Male CD-Sprague-Dawley rats (132-202 g) were received and housed in a room with controlled temperature, humidity, and 12-hour light/dark cycle. After a period of acclimatization of 4 to 5 days, and after a 24-hour food fasting period, animals were used for the study described below.
(§2) Gabapentin or pregabalin (CI-1008) were dissolved in water and administered orally at the following doses: 1, 10, 100, and 200 mg/kg in a volume of 1 mL. Control animals were dosed with an equal volume of vehicle (1 mL of water). Sixty minutes later, all the animals received 1 mL of a solution of 80 mg/kg indomethacin dissolved in 5% aqueous NaHCO3. Control animals received 1 mL of 5% aqueous NaHCO3 orally. Experimental groups were as follows:
(§3) Animals were sacrificed by decapitation 4 hours post-indomethacin administration. The stomach was removed and opened along the greater curvature and its image digitized and stored on an optical disk using a 486-based PC computer equipped with CUE3 system imaging analysis software (Olympus Corp., Marietta, Georgia, USA). Two 6-mm biopsies were taken from a constant region of the gastric mucosa located in each side of the glandular portion of the stomach and their PGE2 content was measured using a commercially available ELISA kit (Assay Designs Inc., Ann Arbor, Michigan, USA). The presence of gastric damage was determined using the retrieved electronic image, and the extent of damage was measured using the CUE3 imaging software. Data are expressed as a percent of gastric area damaged and the PGE2 content (pg/mL).

Experiment [2] concerns TNBS-Induced Chronic Colonic Allodynia. The experiment can be described thus: TNBS-induced chronic colonic allodynia in rats (colonic distension threshold). The experiment is classed as in vivo, Male Sprague-Dawley rats. The note with it: for Colonic Threshold: TNBS-treated rats, control 43.39, TNBS alone printed 1781; for dose relation of the inhibition of TNBS-induced colonic allodynia: gabapentin 100, 300, 500 mg/kg sc, CI-1008 30, 60, 100, 200 mg/kg sc; for colonic inflammatory effect of TNBS (colon weight, area of hyperemia and necrosis, colonic myeloperoxidase content): sc 30 minutes before measurement, Day 7 after TNBS. As for the experimental part:
GABA analogs were evaluated in rats suffering from chronic visceral allodynia induced by trinitrobenzene sulfonic acid (TNBS).
In humans, digestive disorders are often associated with visceral pain. In these pathologies, the visceral pain threshold is decreased, indicating a visceral hypersensitivity. Consequently, the following study was designed to evaluate the effect of injection of TNBS into the colon on visceral pain threshold in an experimental model of colonic distension.
(§4) Male Sprague-Dawley rats weighing 340 to 400 g were used in the study. The animals were housed three per cage in a regulated environment (20 ± 1°C, 50 ± 5% humidity, with light 8:00 AM to 8:00 PM). Under anethesia (ketamine 80 mg/kg i.p.; acepromazin 12 mg/kg i.p.), TNBS (50 mg/kg), or saline (1.5 mL/kg) was injected into the proximal colon (1 cm from the cecum). After the surgery, animals were individually housed in the regulated environment.
(§5) A balloon catheter (5-6 cm length) was inserted through the anus into the colon and kept in position (tip of balloon 5 cm from the anus) by taping the catheter to the base of the tail. The balloon was progressively inflated by step of 5 mm Hg, from 0 to 75 mm Hg, each step of inflation lasting 30 seconds. Each cycle of colonic distension was controlled by a standard barostat. The threshold corresponds to the pressure which produced the first abdominal contraction, at which time the cycle of distension was discontinued. To determine the colonic threshold, four cycles of distension were performed on the same animal.
In a second series, a group of eight rats treated with TNBS were subjected to a colonic distension session.
In a third series, a group of eight rats treated with TNBS received a subcutaneous (sc) injection of gabapentin or CI-1008 30 minutes prior to initiation of the colonic distension cycle.
(§6) All test compounds were dissolved in saline except TNBS. TNBS was dissolved in EtOH 30% (w/v). Subcutaneous injection of vehicle was given in a volume of […].
(§7) Statistical significance between each group was determined using a one-way ANOVA followed by Student's unpaired t-test. Differences were considered statistically significant at p <0.05.
Pain threshold (pressure of distension inducing the first abdominal contraction) after distal colonic distension was determined at Day 7 in two groups of awake rats: control animals and TNBS-treated animals. […] Inflammatory parameters (colon weight, area of hyperemia and necrosis and colonic myeloperoxidase content) were measured in the proximal colon at Day 7 after TNBS treatment.
Gabapentin (100, 300, and 500 mg/kg sc) and CI-1008 (30, 60, 100, and 200 mg/kg sc) were administered 30 minutes before colonic distension and measurement of the inflammatory parameters.

The subject of experiment [3] is Colonic Threshold in Normal Rats. The experiment can be described thus: Colonic distension pain threshold in normal rats. The experiment is classed as in vivo, Male Sprague-Dawley rats. The note with it: normal rats, control 43.33, NS vs control. As for the experimental part: as §4, §5
In a first series of experiments, a group of eight rats treated with saline were subjected to a colonic distension session.
as §6, §7

Experiment [4] deals with gastric damage induced by indomethacin. The experiment is described as follows: Indomethacin (80 mg/kg) gastric damage in rats, percent of gastric area damaged by image analysis. The format is in vivo, Male CD-Sprague-Dawley rats. The note with it: indomethacin + vehicle 5.56 ± 0.48. As for the experimental part:
The following test in rats was carried out to further establish the ability of gabapentin and Pregabalin to reduce the gastrointestinal damage caused by NSAIDS.
as §1, §2, §3

Where [5] appears, read: 1 mg/kg orally before indomethacin 80 mg/kg, control 9525.27 ± 156.00, indomethacin + vehicle 1908.03 ± 72.31.
Where [6] appears, read: 10 mg/kg orally before indomethacin 80 mg/kg, indomethacin + vehicle 1908.03 ± 72.31.
Where [7] appears, read: 100 mg/kg orally before indomethacin 80 mg/kg, indomethacin + vehicle 1908.03 ± 72.31.
[8] abbreviates: 200 mg/kg orally before indomethacin 80 mg/kg, indomethacin + vehicle 1908.03 ± 72.31.
Setting [9] is: 1 mg/kg orally 60 min before indomethacin 80 mg/kg, 4 hours post-indomethacin, average ± standard error.
[10] abbreviates: 10 mg/kg orally 60 min before indomethacin 80 mg/kg.
Setting [11] is: 100 mg/kg orally 60 min before indomethacin 80 mg/kg.
Where [12] appears, read: 200 mg/kg orally 60 min before indomethacin 80 mg/kg.

For `CC(C)C[C@H](CN)CC(=O)O` [CI-1008, (S)-3-(aminomethyl)-5-methylhexanoic acid], the “PGE2 Synthesis” value in experiment [1] (setting [5]) is 1209.95 ± 105.50 pg/mL; in experiment [1] (setting [6]) it was 2666.16 ± 307.45 pg/mL; in experiment [1] (setting [7]) it was 3994.45 ± 318.95 pg/mL; in experiment [1] (setting [8]), 3288.92 ± 407.43 pg/mL. The “effect on the inhibition of PGE2 caused by indomethacin” value in experiment [1] is “Neither gabapentin nor CI-1008, at any dose tested, were able to significantly modify this effect”. Besides, the “Colonic Threshold” value in experiment [2] (30 mg/kg sc 30 min before colonic distension, Day 7) was 2172 mm Hg; in experiment [2] (60 mg/kg sc) it was 2547 mm Hg; in experiment [2] (100 mg/kg sc), 33.13 mm Hg; in experiment [2] (200 mg/kg sc), 40.47 mm Hg; in experiment [3] (200 mg/kg sc) it was 46.41 mm Hg. For the same molecule, the “allodynia induced by TNBS (in words)” value in experiment [2] (100 mg/kg sc) is “completely suppressed”. In addition, in experiment [2], the “dose relation of the inhibition of TNBS-induced colonic allodynia” value is on record as “dose-related inhibition”. Moreover, the “colonic inflammatory effect of TNBS (colon weight, area of hyperemia and necrosis, colonic myeloperoxidase content)” value in experiment [2] is “neither gabapentin nor CI-1008 inhibited”. Moreover, the “% Area Damaged” value in experiment [4] (setting [9]) is 8.07 ± 2.19%; in experiment [4] (setting [10]), 4.07 ± 0.42%; in experiment [4] (setting [11]) it was 1.99± 0.25 %; in experiment [4] (setting [12]), 0.34 ± 0.06 %.

On to `NCC1(CC(=O)O)CCCCC1` [Gabapentin, 1-(aminomethyl)-cyclohexane acetic acid], for which the “PGE2 Synthesis” value in experiment [1] (setting [5]) turned out to be 1783.66 ± 73.47 pg/mL; in experiment [1] (setting [6]), 3065.78 ± 137.19 pg/mL; in experiment [1] (setting [7]), 2997.90 ± 226.80 pg/mL; in experiment [1] (setting [8]), 2615.74 ± 165.36 pg/mL. Moreover, in experiment [1], the “effect on the inhibition of PGE2 caused by indomethacin” value is “Neither gabapentin nor CI-1008, at any dose tested, were able to significantly modify this effect”. Also, the “Colonic Threshold” value came to 22.03 mm Hg in experiment [2] (100 mg/kg sc), 24.69 mm Hg in experiment [2] (300 mg/kg sc), 36.88 mm Hg in experiment [2] (500 mg/kg sc) and 43.75 mm Hg in experiment [3] (500 mg/kg sc). In addition, the “effect of TNBS on colonic pain (in words)” value in experiment [2] (500 mg/kg sc) is reported as “completely blocked”. Besides, in experiment [2], the “dose relation of the inhibition of TNBS-induced colonic allodynia” value is recorded as “inhibited in a dose-related manner”. For the same molecule, in experiment [2], the “colonic inflammatory effect of TNBS (colon weight, area of hyperemia and necrosis, colonic myeloperoxidase content)” value is listed as “neither gabapentin nor CI-1008 inhibited”. Further, the “% Area Damaged” value in experiment [4] (setting [9]) came to 2.99 ± 0.46%; in experiment [4] (setting [10]), 3.96 ± 0.35%; in experiment [4] (setting [11]), 1.87 ± 0.1%; in experiment [4] (setting [12]), 1.43 ± 0.40%.
